For one data set, the target named is T1, IdmH (Streptomyces antibioticus, UniProt C5HV10).
T1 construct: full length (145 residues), N-terminal His6 tag with thrombin site (pET-28a), E. coli BL21(DE3); homodimer
In words: 1H-15N HSQC-TROSY chemical shift perturbation titration. Conditions: 0.2 mM 15N-labelled IdmH, 0-200 uM indanomycin; 20 mM Tris pH 7.3, 50 mM NaCl, 1 mM DTT, 25 C; proposed active-site pocket; proposed (not shown) reaction product. It is filed as binding.

Data set [1] concerns the molecule itself. Briefly: SEC + other: LC/MS; oligomeric state of purified, tag-cleaved wild-type IdmH; conditions of this analysis not told in the text (Supplementary Fig. S4).

This note sets out measurements from paper PMC6830212, “Crystal structure of the putative cyclase IdmH from the indanomycin nonribosomal peptide synthase/polyketide synthase” (IUCrJ, 2019).

A word on the stoichiometry N: it is the number of molecules, sites or subunits per partner or assembly.

On to `CC/C(=C\C=C\[C@@H]1C=C[C@@H]2[C@@H](CC)CC[C@H]2[C@@H]1C(=O)c1ccc[nH]1)[C@@H]1O[C@@H]([C@@H](C)C(=O)O)CC[C@@H]1C` [compound 1, indanomycin], for which the “1H-15N HSQC-TROSY chemical shift perturbation titration” value at IdmH is reported as “indanomycin can bind to IdmH in the proposed active site”.

B1: wild-type IdmH (full-length putative indane cyclase from the indanomycin NRPS/PKS pathway) (enzyme, UniProt C5HV10 1-145, looked up)
chain: MAHQPSDTIAGLYEAFNSGDLETLRELIAPDAVIHLPGTAGDAEHPPGTPRDREGWLGVWQFTQAFFPDMTATVQDIVQTGDLVATRCVARGTHSIEFMGVPPTGRPFEMTMLNMSRVRDGRIVEHWTISDNVTMLAQLGVKASL
notes: IdmH, Streptomyces antibioticus NRRL 8167, full-length idmH gene (ACN69984.1) amplified from genomic DNA; 145 amino acids as printed; Cloned in pET-28a at NdeI; residues of the thrombin site may remain at the N-terminus after cleavage (surmised); also called full-length IdmH; native IdmH; source: E. coli BL21(DE3), purified (HisTrap, thrombin cleavage, HiTrap Q, Superdex 75 SEC); not shown: His6, …
As to B1, the “stoichiometry N” value in data set [1] was determined as 2.
